Paper PMC4070292 (Molecular nutrition & food research, 2012)

Columns and labels:
TNF-α = experiment: LPS-induced TNF-α release in macrophages; format: cell-based, murine; settings: 100 ng/mL LPS
NF-κB = NF-κB SEAP reporter gene assay in LPS-stimulated macrophages; format: cell-based, murine; settings: 16 h; for decrease of NF-κB activity versus control / effect on LPS-induced NF-κB activity: LPS; for decrease of NF-κB activity versus control: 50 μM; for effect on LPS-induced NF-κB activity: doses as high as 100 μM; for effect on NF-κB activity without LPS: compound alone with diluent control; for effect on LPS-stimulated NF-κB activity: 100 ng/mL LPS, 25 μM
[1] = diet containing 0.2% pure apigenin for 7 days ref 47; cited from earlier work
[2] = rats, 14 mg luteolin/kg body weight by gavage, after 1 h ref 48; cited from earlier work

## O=c1cc(-c2ccc(O)cc2)oc2cc(O[C@@H]3O[C@H](CO)[C@@H](O)[C@H](O)[C@H]3O)cc(O)c12 [apigenin 7-O-glucoside]
TNF-α; 10–25 μM, data not shown
  effect on LPS-induced TNF-α: no effect
TNF-α; 8 h, doses as high as 100 μM
  effect on LPS-induced TNF-α: no effect
NF-κB
  decrease of NF-κB activity versus control: not statistically significant
  effect on LPS-induced NF-κB activity: no effect
  effect on NF-κB activity without LPS: no effect

## O=c1cc(-c2ccc(O)cc2)oc2cc(O)cc(O)c12 [apigenin]
TNF-α; 8 h, doses as low as 10 μM
  effect on LPS-induced TNF-α: significant reduction
[1]
  apigenin in mouse plasma: 90 nM

## COc1cc(-c2cc(=O)c3c(O)cc(O)cc3o2)ccc1O [chrysoeriol, Chrysoeriol]
TNF-α; 8 h, doses as low as 10 μM
  effect on LPS-induced TNF-α: significant reduction
NF-κB
  effect on LPS-stimulated NF-κB activity: significantly reduced
  effect on NF-κB activity without LPS: no effect

## O=c1cc(-c2ccc(O)c(O)c2)oc2cc(O[C@@H]3O[C@H](CO)[C@@H](O)[C@H](O)[C@H]3O)cc(O)c12 [luteolin 7-O-glucoside]
TNF-α; 10–25 μM, data not shown
  effect on LPS-induced TNF-α: no effect
TNF-α; 8 h, doses as high as 100 μM
  effect on LPS-induced TNF-α: no effect
NF-κB
  decrease of NF-κB activity versus control: not statistically significant
  effect on LPS-induced NF-κB activity: no effect
  effect on NF-κB activity without LPS: no effect

## O=c1cc(-c2ccc(O)c(O)c2)oc2cc(O)cc(O)c12 [luteolin]
TNF-α; 8 h, doses as low as 10 μM
  effect on LPS-induced TNF-α: significant reduction
NF-κB
  effect on LPS-stimulated NF-κB activity: significantly reduced
  effect on NF-κB activity without LPS: no effect
[2]
  peak plasma concentration: 6.9 µM
